From the NIST ThermoML archive (doi:10.1021/je9005618)

Test: refractive index (Na D-line) (dimensionless); xn = mol fraction of the nth substance listed
Settings: 101 kPa, Liquid

CCn1cc[n+](C)c1.O=S(=O)([O-])C(F)(F)F [1-ethyl-3-methylimidazolium trifluoromethanesulfonate] + COC(C)=O
refractive index
Settings | 288.15 K | 298.15 K | 308.15 K | 318.15 K
x1 = 0.05083 | 1.37625 | 1.37116 | 1.3671 | 1.36334
x1 = 0.09991 | 1.38561 | 1.38057 | 1.37793 | 1.37521
x1 = 0.1515 | 1.39328 | 1.38873 | 1.38548 | 1.38291
x1 = 0.1998 | 1.39836 | 1.39419 | 1.39098 | 1.38871
x1 = 0.2997 | 1.40796 | 1.40429 | 1.40087 | 1.39857
x1 = 0.4003 | 1.41462 | 1.4112 | 1.40804 | 1.40487
x1 = 0.4958 | 1.42026 | 1.41695 | 1.41367 | 1.41049
x1 = 0.595 | 1.42444 | 1.42123 | 1.41831 | 1.41533
x1 = 0.6962 | 1.42797 | 1.42488 | 1.42201 | 1.41907
x1 = 0.7954 | 1.43089 | 1.42794 | 1.4251 | 1.42226
x1 = 0.8385 | 1.43234 | 1.42944 | 1.42649 | 1.42364
x1 = 0.8977 | 1.43347 | 1.43061 | 1.42771 | 1.42488
x1 = 0.9466 | 1.43451 | 1.4317 | 1.4289 | 1.42618

CCn1cc[n+](C)c1.O=S(=O)([O-])C(F)(F)F [1-ethyl-3-methylimidazolium trifluoromethanesulfonate] + CCOC(C)=O
refractive index
Settings | 288.15 K | 298.15 K | 308.15 K | 318.15 K | 328.15 K
x1 = 0.04887 | 1.38327 | 1.37802 | 1.37297 | 1.3691 | 1.3631
x1 = 0.1503 | 1.39622 | 1.39151 | 1.3881 | 1.38476 | 1.38129
x1 = 0.2004 | 1.40093 | 1.39666 | 1.3944 | 1.3917 | 1.38772
x1 = 0.2998 | 1.40907 | 1.40499 | 1.40234 | 1.39937 | 1.39558
x1 = 0.399 | 1.41507 | 1.41144 | 1.40854 | 1.40604 | 1.4031
x1 = 0.5006 | 1.42038 | 1.41682 | 1.41415 | 1.41137 | 1.40906
x1 = 0.5977 | 1.42469 | 1.42133 | 1.4186 | 1.41549 | 1.41251
x1 = 0.6974 | 1.42874 | 1.42566 | 1.42254 | 1.41963 | 1.41671
x1 = 0.7962 | 1.43118 | 1.42823 | 1.42528 | 1.42239 | 1.41954
x1 = 0.8474 | 1.43242 | 1.4295 | 1.42662 | 1.42376 | 1.42094
x1 = 0.9011 | 1.43367 | 1.43075 | 1.42792 | 1.42471 | 1.42195
x1 = 0.9491 | 1.43467 | 1.43182 | 1.42903 | 1.42624 | 1.42352

CCn1cc[n+](C)c1.O=S(=O)([O-])C(F)(F)F [1-ethyl-3-methylimidazolium trifluoromethanesulfonate] + CC(C)=O
refractive index
Settings | 288.15 K | 298.15 K | 308.15 K | 318.15 K
x1 = 0.04957 | 1.37495 | 1.36994 | 1.36575 | 1.36218
x1 = 0.1005 | 1.38499 | 1.38033 | 1.37615 | 1.37308
x1 = 0.1503 | 1.39293 | 1.38854 | 1.38475 | 1.38186
x1 = 0.2007 | 1.39936 | 1.39527 | 1.39155 | 1.38862
x1 = 0.2995 | 1.40865 | 1.40492 | 1.40133 | 1.39777
x1 = 0.3973 | 1.41585 | 1.41237 | 1.409 | 1.40574
x1 = 0.5018 | 1.42117 | 1.41787 | 1.41464 | 1.41148
x1 = 0.5996 | 1.42541 | 1.42225 | 1.41908 | 1.41604
x1 = 0.6973 | 1.42854 | 1.42549 | 1.4225 | 1.41953
x1 = 0.7733 | 1.43087 | 1.42786 | 1.4249 | 1.42199
x1 = 0.8452 | 1.43253 | 1.42963 | 1.42676 | 1.42392
x1 = 0.8988 | 1.43368 | 1.43085 | 1.42803 | 1.42518
x1 = 0.9559 | 1.43487 | 1.43207 | 1.42925 | 1.4265
